Patent US20240116985A1, “STAPLED PEPTIDES AND METHODS THEREOF” (priority 2020, published 2024)
pIC50: −log10 of the molar value. In brackets after ≈: the same amount, converted by molar mass. Several values for one entry are separate records, joined by “and”; a condition that tells them apart may be missing. Equal entries are not always repeated. Where two headings read alike, the source gives them in different places.

How the values were obtained:
[1] = tested on: TCF/LEF luciferase Reporter in DLD1 cells; assay: TCF reporter assay (DLD1 TCF/LEF luciferase reporter, Bright-Glo); assay type: cell-based; conditions: for DLD1 TCF c2 BrightGlo % Inhibition: replicates
Summary of the method: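 Readouts: Bright-Glo luciferase for reporter signal and CellTiter-Glo for cell viability, with absolute IC50 derived. The reporter clone came from lentiviral TCF/LEF-luciferase transduction of DLD1 cells, seeded 5000 cells/well in RPMI with 4% FBS and exposed overnight to serially diluted compounds.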

[2] = CHI Log D procedure; assay type: physicochemical; conditions: pH 7.4, CHI Log D
[3] = biological target: T1, beta-catenin/TCF4 engagement (Homo sapiens, UniProt P35222); assay: Nano-BRET target engagement assay (B-cat-Halo & TCF4-Luc in HEK293 cells); assay type: cell-based
T1 construct: expressed in transfected cells; host or cells: HEK293
T1 sequence (P35222 1-781): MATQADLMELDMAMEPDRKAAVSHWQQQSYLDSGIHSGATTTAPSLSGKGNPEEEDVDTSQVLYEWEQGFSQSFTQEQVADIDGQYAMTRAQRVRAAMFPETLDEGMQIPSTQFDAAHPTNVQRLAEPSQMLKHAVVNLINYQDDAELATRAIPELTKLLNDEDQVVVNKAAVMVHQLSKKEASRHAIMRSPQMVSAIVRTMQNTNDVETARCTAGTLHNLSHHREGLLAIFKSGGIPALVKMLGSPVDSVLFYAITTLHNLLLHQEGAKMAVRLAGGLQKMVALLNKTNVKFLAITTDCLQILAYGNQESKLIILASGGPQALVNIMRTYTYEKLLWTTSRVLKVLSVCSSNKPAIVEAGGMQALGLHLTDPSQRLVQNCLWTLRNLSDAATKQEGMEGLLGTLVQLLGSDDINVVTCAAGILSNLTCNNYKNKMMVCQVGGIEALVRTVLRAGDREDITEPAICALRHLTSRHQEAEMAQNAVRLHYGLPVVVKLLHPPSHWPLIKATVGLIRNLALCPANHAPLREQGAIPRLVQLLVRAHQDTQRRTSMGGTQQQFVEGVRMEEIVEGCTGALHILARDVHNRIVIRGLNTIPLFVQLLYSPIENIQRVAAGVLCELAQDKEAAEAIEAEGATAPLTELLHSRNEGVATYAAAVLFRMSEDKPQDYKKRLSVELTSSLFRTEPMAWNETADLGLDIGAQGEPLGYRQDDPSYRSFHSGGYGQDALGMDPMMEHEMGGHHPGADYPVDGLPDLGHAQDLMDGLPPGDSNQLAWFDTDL

[4] = biological target: T2, full-length beta-Catenin (Uniprot ID P35222) (Homo sapiens, UniProt P35222); assay: Fluorescence polarization IC50 (beta-catenin / 5FAM-TCF4 10-53 competition); assay type: binding; conditions: read-out: beta-Catenin FP IC50
T2 construct: 10 nM full-length beta-Catenin (Uniprot ID P35222)
T2 sequence (P35222 1-781): T1 sequence (P35222 1-781)

[5] = Solubility in PBS; assay type: physicochemical; conditions: Solubility (uM)
Summary of the method: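 Steps: ultracentrifuge the peptide PBS solution, inject the supernatant on HPLC, inject a 50 μM peptide DMSO solution as reference, then calculate solubility as area ratio (PBS/DMSO) × 50 uM.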

[6] = read-out: DLD1 4% Abs IC50, DLD1 4%
[7] = absolute IC50, read-out: DLD1 reporter assay Abs IC50
[8] = first dose = 20 uM (plate map), 20 µM
[9] = third dose = 5 uM (plate map), 5 µM
[10] = absolute IC50, read-out: NanoBRET Abs IC50

Compound	pIC50 [1, 6]	chromatographic logD [2]	pIC50 ([3]; read-out: NanoBRET Abs IC50)	pIC50 ([3]; read-out: NanoBRET IC50)	pIC50 [4]	Solubility [5] [µM]	pIC50 [1, 7]	pIC50 [3, 10]	DLD1 TCF c2 BrightGlo % Inhibition [1, 8]	DLD1 TCF c2 BrightGlo % Inhibition ([1]; 0.625 µM)	DLD1 TCF c2 BrightGlo % Inhibition ([1]; 1.25 µM)	DLD1 TCF c2 BrightGlo % Inhibition ([1]; 2.5 µM)	DLD1 TCF c2 BrightGlo % Inhibition ([1]; 10 µM)	DLD1 TCF c2 BrightGlo % Inhibition [1, 9]
CC(=O)N1CCC[C@]12CC=CCCCC1(CCCC=CCCCOC(=O)N3CC[C@@](C(=O)N[C@@H](Cc4ccsc4)C(=O)N[C@@H](Cc4csc5ccccc45)C(=O)N[C@H](C(N)=O)[C@@H](C)O)(C3)NC(=O)[C@H](CC(N)=O)NC(=O)[C@H](Cc3ccccc3)NC(=O)[C@H](C)NC(=O)[C@H](C)NC(=O)[C@H](CC(=O)O)NC(=O)[C@H](CC(=O)O)NC1=O)NC(=O)[C@H](CC(C)(C)C)NC(=O)[C@H](CC(=O)O)NC2=O (stereo partly drawn) [I-814, Ac-PL3-Asp-Npg-B5-Asp-Asp-Ala-Ala-Phe-Asn-PyrS2-3Thi-BztA-Thr-NH2]	4.78	2.1	4.72	4.90	8.15	47 (≈ 88.9 µg/mL)	–	–	–	–	–	–	–	–
CC(=O)N1CCC[C@]12CC=CCCCC1(CCCC=CCCCCCC[C@@](C)(C(=O)N[C@@H](Cc3ccccc3Cl)C(=O)N[C@@H](Cc3csc4ccccc34)C(=O)N[C@@H](CCC(N)=O)C(N)=O)NC(=O)[C@H](CCO)NC(=O)[C@H](Cc3ccccc3)NC(=O)[C@H](C)NC(=O)[C@H](C)NC(=O)[C@H](CN(CC(=O)O)CC(F)(F)F)NC(=O)[C@H](CC(=O)O)NC1=O)NC(=O)[C@H](CC(C)(C)C)NC(=O)[C@H](CC(=O)O)NC2=O (stereo partly drawn) [I-996, Ac-PL3-Asp-Npg-B5-Asp-TfeGA-Ala-Ala-Phe-Hse-S8-2C1F-BztA-Gln-NH2]	5.44	2.84	–	–	7.68	48 (≈ 96.1 µg/mL)	4.97	4.95	–	–	–	–	–	–
CC(=O)N1CCC[C@]12CC=CCCCC1(CCCC=CCCCCCC[C@@](C)(C(=O)N[C@@H](Cc3ccccc3Cl)C(=O)N[C@@H](Cc3csc4ccccc34)C(=O)N[C@@H](CCO)C(N)=O)NC(=O)[C@H](CCO)NC(=O)[C@H](Cc3ccccc3)NC(=O)[C@H](C)NC(=O)[C@H](C)NC(=O)[C@H](CN(CC(=O)O)CC(F)(F)F)NC(=O)[C@H](CC(=O)O)NC1=O)NC(=O)[C@H](CC(C)(C)C)NC(=O)[C@H](CC(=O)O)NC2=O (stereo partly drawn) [I-1000, Ac-PL3-Asp-Npg-B5-Asp-TfeGA-Ala-Ala-Phe-Hse-S8-2C1F-BztA-Hse-NH2]	5.72	2.97	–	–	7.74	44 (≈ 86.9 µg/mL)	5.10	4.62	79.5% (2×) and 79.7%	−3.4% and 2.4% and 4.9%	−0.6% and −1.2% and 1.5%	5.5% and 10.2% and 12.4%	57.0% and 59.8% and 61.4%	25.7% and 29.9% and 32.3%
CC(=O)N1CCC[C@]12CC=CCCCC1(CCCC=CCCCOC(=O)N3CC[C@@](C(=O)N[C@@H](Cc4ccccc4Cl)C(=O)N[C@@H](Cc4csc5ccccc45)C(=O)N[C@@H](CCC(N)=O)C(N)=O)(C3)NC(=O)[C@H](CC(N)=O)NC(=O)[C@H](Cc3ccccc3)NC(=O)[C@H](C)NC(=O)[C@H](CC(C)C)NC(=O)[C@H](CN(CC(=O)O)CC(F)(F)F)NC(=O)[C@H](CC(=O)O)NC1=O)NC(=O)[C@H](CC(C)(C)C)NC(=O)[C@H](CC(=O)O)NC2=O (stereo partly drawn) [I-1007, Ac-PL3-Asp-Npg-B5-Asp-TfeGA-Leu-Ala-Phe-Asn-PyrS2-2C1F-BztA-Gln-NH2]	–	2.45	–	–	8.22	18 (≈ 37.8 µg/mL)	5.48	4.60	–	–	–	–	–	–
CC(=O)N1CCC[C@]12CC=CCCCC1(CCCC=CCCCOC(=O)N3CC[C@@](C(=O)N[C@@H](Cc4ccccc4Cl)C(=O)N[C@@H](Cc4csc5ccccc45)C(=O)N[C@@H](CCC(N)=O)C(N)=O)(C3)NC(=O)[C@H](CC(N)=O)NC(=O)[C@H](Cc3ccccc3)NC(=O)[C@H](C)NC(=O)[C@H](Cc3ccccc3)NC(=O)[C@H](CN(CC(=O)O)CC(F)(F)F)NC(=O)[C@H](CC(=O)O)NC1=O)NC(=O)[C@H](CC(C)(C)C)NC(=O)[C@H](CC(=O)O)NC2=O (stereo partly drawn) [I-1008, Ac-PL3-Asp-Npg-B5-Asp-TfeGA-Phe-Ala-Phe-Asn-PyrS2-2C1F-BztA-Gln-NH2]	5.33	2.43	–	–	8.05	34 (≈ 72.5 µg/mL)	4.89	4.85	–	–	–	–	–	–

Now those with a higher pIC50 [4], led by results:

pIC50 [1, 6]	chromatographic logD [2]	pIC50 ([3]; read-out: NanoBRET Abs IC50)	pIC50 ([3]; read-out: NanoBRET IC50)	pIC50 [4]	Solubility [5] [µM]	pIC50 [1, 7]	pIC50 [3, 10]	Compound	DLD1 TCF c2 BrightGlo % Inhibition [1, 8]	DLD1 TCF c2 BrightGlo % Inhibition ([1]; 0.625 µM)	DLD1 TCF c2 BrightGlo % Inhibition ([1]; 1.25 µM)	DLD1 TCF c2 BrightGlo % Inhibition ([1]; 2.5 µM)	DLD1 TCF c2 BrightGlo % Inhibition ([1]; 10 µM)	DLD1 TCF c2 BrightGlo % Inhibition [1, 9]
4.95	2.1	5.21	4.93	8.30	36 (≈ 68.6 µg/mL)	–	–	CC(=O)N1CCC[C@]12CC=CCCCC1(CCCC=CCCCOC(=O)N3CC[C@@](C(=O)N[C@@H](Cc4ccsc4)C(=O)N[C@@H](Cc4csc5ccccc45)C(=O)N[C@@H](CCC(N)=O)C(N)=O)(C3)NC(=O)[C@H]([C@@H](C)O)NC(=O)[C@H](Cc3ccccc3)NC(=O)[C@H](C)NC(=O)[C@H](C)NC(=O)[C@H](CC(=O)O)NC(=O)[C@H](CC(=O)O)NC1=O)NC(=O)[C@H](CC(C)(C)C)NC(=O)[C@H](CC(=O)O)NC2=O (stereo partly drawn) [I-809, Ac-PL3-Asp-Npg-B5-Asp-Asp-Ala-Ala-Phe-Thr-PyrS2-3Thi-BztA-Gln-NH2]	–	–	–	–	–	–
4.99	2.1	4.81	4.93	8.30	46 (≈ 86.3 µg/mL)	–	–	CC(=O)N1CCC[C@]12CC=CCCCC1(CCCC=CCCCOC(=O)N3CC[C@@](C(=O)N[C@@H](Cc4ccsc4)C(=O)N[C@@H](Cc4csc5ccccc45)C(=O)N[C@@H](CO)C(N)=O)(C3)NC(=O)[C@H](CC(N)=O)NC(=O)[C@H](Cc3ccccc3)NC(=O)[C@H](C)NC(=O)[C@H](C)NC(=O)[C@H](CC(=O)O)NC(=O)[C@H](CC(=O)O)NC1=O)NC(=O)[C@H](CC(C)(C)C)NC(=O)[C@H](CC(=O)O)NC2=O (stereo partly drawn) [I-815, Ac-PL3-Asp-Npg-B5-Asp-Asp-Ala-Ala-Phe-Asn-PyrS2-3Thi-BztA-Ser-NH2]	–	–	–	–	–	–
–	2.35	–	–	8.30	11 (≈ 22.6 µg/mL)	5.28	4.86	CC(=O)N1CCC[C@]12CC=CCCCC1(CCCC=CCCCOC(=O)N3CC[C@@](C(=O)N[C@@H](Cc4ccccc4)C(=O)N[C@@H](Cc4csc5ccccc45)C(=O)N[C@@H](CCC(N)=O)C(N)=O)(C3)NC(=O)[C@H](Cc3ccccc3)NC(=O)[C@H](Cc3ccccc3)NC(=O)[C@H](C)NC(=O)[C@H](C)NC(=O)[C@H](CN(CC(=O)O)CC(F)(F)F)NC(=O)[C@H](CC(=O)O)NC1=O)NC(=O)[C@H](CC(C)(C)C)NC(=O)[C@H](CC(=O)O)NC2=O (stereo partly drawn) [I-988, Ac-PL3-Asp-Npg-B5-Asp-TfeGA-Ala-Ala-Phe-Phe-PyrS2-Phe-BztA-Gln-NH2]	78.1% and 81.3% and 81.9%	11.0% and 10.7% and 15.5%	5.7% and 22.3% and 21.2%	13.3% and 28.8% and 33.4%	61.5% and 72.0% and 76.2%	32.0% and 57.8% and 62.0%
–	2	–	–	8.30	47 (≈ 97.5 µg/mL)	< 4.70	4.97	CC(=O)N1CCC[C@]12CC=CCCCC1(CCCC=CCCCOC(=O)N3CC[C@@](C(=O)N[C@@H](Cc4ccccc4Cl)C(=O)N[C@@H](Cc4csc5ccccc45)C(=O)N[C@@H](CCC(N)=O)C(N)=O)(C3)NC(=O)[C@H](CC(N)=O)NC(=O)[C@H](Cc3ccccc3)NC(=O)[C@H](CO)NC(=O)[C@H](C)NC(=O)[C@H](CN(CC(=O)O)CC(F)(F)F)NC(=O)[C@H](CC(=O)O)NC1=O)NC(=O)[C@H](CC(C)(C)C)NC(=O)[C@H](CC(=O)O)NC2=O (stereo partly drawn) [I-1004, Ac-PL3-Asp-Npg-B5-Asp-TfeGA-Ala-Ser-Phe-Asn-PyrS2-2C1F-BztA-Gln-NH2]	–	–	–	–	–	–
–	2.03	–	–	8.30	23 (≈ 48.6 µg/mL)	< 4.70	4.68	CC(=O)N1CCC[C@]12CC=CCCCC1(CCCC=CCCCOC(=O)N3CC[C@@](C(=O)N[C@@H](Cc4ccccc4Cl)C(=O)N[C@@H](Cc4csc5ccccc45)C(=O)N[C@@H](CCC(N)=O)C(N)=O)(C3)NC(=O)[C@H](CC(N)=O)NC(=O)[C@H](Cc3ccccc3)NC(=O)[C@H](C)NC(=O)[C@H](CCCCN)NC(=O)[C@H](CN(CC(=O)O)CC(F)(F)F)NC(=O)[C@H](CC(=O)O)NC1=O)NC(=O)[C@H](CC(C)(C)C)NC(=O)[C@H](CC(=O)O)NC2=O (stereo partly drawn) [I-1011, Ac-PL3-Asp-Npg-B5-Asp-TfeGA-Lys-Ala-Phe-Asn-PyrS2-2C1F-BztA-Gln-NH2]	–	–	–	–	–	–
